# Read-outs that look alike come from different tables or passages of the source.
# Key:
# [1] = test system: Daphnia sp.; details: for Classification (aquatic toxicity): based on Daphnia 48 hours EC50
# [2] = test system: Fish; test: Experimental fish 96-hour acute toxicity (values in brackets in Table 4); format: in vivo; details: experimental result (value in brackets)
Compound,Classification (aquatic toxicity) [1],"Biodegradability (day 0, 20° C.)","Biodegradability (day 1, 20° C.)","Biodegradability (day 2, 20° C.)","Biodegradability (day 3, 20° C.)","Biodegradability (day 4, 20° C.)","Biodegradability (day 5, 20° C.)","Biodegradability (day 6, 20° C.)","Biodegradability (day 7, 20° C.)","Biodegradability (day 8, 20° C.)","Biodegradability (day 9, 20° C.)","Biodegradability (day 10, 20° C.)","Biodegradability (day 11, 20° C.)","Biodegradability (day 12, 20° C.)","Biodegradability (day 13, 20° C.)","Biodegradability (day 14, 20° C.)","Biodegradability (day 15, 20° C.)","Biodegradability (day 16, 20° C.)","Biodegradability (day 17, 20° C.)","Biodegradability (day 18, 20° C.)",other results
"COCCOCCOCCNC(C)(C)C [B, Methoxyethoxyethoxyethanol-tert-butylamine]",No classification,0,0.00,0.20,0.30,0.60,1.02,1.54,2.09,3.00,3.81,1.89,3.82,4.04,4.70,5.70,6.03,6.56,7.14,7.65,"Daphnia Experimental, 48 hours, EC50 ([1]; experimental, 48 hours): EC50 > 100 mg/l; Biodegradability (day 19, 20° C.): 9.52; Biodegradability (day 20, 20° C.): 7.55; Biodegradability (day 21, 20° C.): 7.55; Biodegradability (day 22, 20° C.): 7.55; Biodegradability (day 23, 20° C.): 7.55; Biodegradability (day 24, 20° C.): 7.55; Biodegradability (day 25, 20° C.): 7.55; Biodegradability (day 26, 20° C.): 7.55; Biodegradability (day 27, 20° C.): 7.55; Biodegradability (day 28, 20° C.): 7.55"
Ethoxyethanol-tert-butylamine (tert-butylamino-ethoxy-ethanol),Harmful to aquatic,0,0.05,0.00,0.00,0.00,0.00,0.00,0.06,1.68,3.34,0.47,0.56,0.76,0.91,1.04,1.16,1.33,1.51,1.56,"Daphnia 48-hour LC50 ([1]; experimental result (value in brackets)): 31.6 µg/mL; Biodegradability (day 19, 20° C.): 1.58; Biodegradability (day 20, 20° C.): 1.71; Biodegradability (day 21, 20° C.): 1.89; Biodegradability (day 22, 20° C.): 2.00; Biodegradability (day 23, 20° C.): 1.95; Biodegradability (day 24, 20° C.): 2.00; Biodegradability (day 25, 20° C.): 2.06; Biodegradability (day 26, 20° C.): 2.06; Biodegradability (day 27, 20° C.): 2.06; Biodegradability (day 28, 20° C.): 2.06; Fish 96-hour LC50 [2]: 225 µg/mL"
"CC(C)(C)NCCOCCOCCNC(C)(C)C [D, Bis-(t-butylamino ethoxy)ethane (bis-(t-butylamino)triethylene glycol)]",Harmful to aquatic,–,–,–,–,–,–,–,–,–,–,–,–,–,–,–,–,–,–,–,–
